Values of other authors in patent publication US10703773B2, “Glycosyl hesperetin and process for producing the same and uses thereof” (Hayashibara Co. Ltd., priority 2014, dated 2020).

Conditions: in water at ambient temperature

Water solubility: about 0.002 w/v %
SMILES: COc1ccc([C@@H]2CC(=O)c3c(O)cc(O[C@@H]4O[C@H](CO[C@@H]5O[C@@H](C)[C@H](O)[C@@H](O)[C@H]5O)[C@@H](O)[C@H](O)[C@H]4O)cc3O2)cc1O [hesperidin]
